Legend:
Experiment in all cases: -log10 GI50 (growth inhibition 50%) (-log10(M)); higher = more potent growth inhibition
[1] = system: MDAMB231
Method in brief: (§1)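 A value carrying a < qualifier equals the top dose tested. Each compound was tested in triplicate on breast cancer cell lines for 72 hours at nine doses in 1:5 serial dilution, using a luminescence read-out against a time-zero plate. Nonlinear least squares fitting of a Gompertz curve gave GI50, the molar concentration causing the set level of growth inhibition, which is reported as its negative logarithm. The logarithm is base 10.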

[2] = system: HCC1954
Method in brief: as §1

[3] = system: 600MPE
Method in brief: as §1

[4] = system: MDAMB415
Method in brief: as §1

[5] = system: MCF7
Method in brief: as §1

[6] = system: MDAMB175VII
Method in brief: as §1

[7] = system: HCC2185
Method in brief: as §1

[8] = system: MCF12A
Method in brief: as §1

[9] = system: HCC1143
Method in brief: as §1

[10] = system: HCC1428
Method in brief: as §1

[11] = system: HCC38
Method in brief: as §1

[12] = system: MDAMB361
Method in brief: as §1

[13] = system: 184A1
Method in brief: as §1

[14] = system: SUM159PT
Method in brief: as §1

[15] = system: AU565
Method in brief: as §1

[16] = system: BT474
Method in brief: as §1

[17] = system: BT549
Method in brief: as §1

[18] = system: ZR75B
Method in brief: as §1

[19] = system: HCC1419
Method in brief: as §1

[20] = system: MDAMB453
Method in brief: as §1

Structure (SMILES) | -log10 GI50 [1] | -log10 GI50 [2] | -log10 GI50 [3] | -log10 GI50 [4] | -log10 GI50 [5] | -log10 GI50 [6] | -log10 GI50 [7] | -log10 GI50 [8] | -log10 GI50 [9] | -log10 GI50 [10] | -log10 GI50 [11] | -log10 GI50 [12] | -log10 GI50 [13] | -log10 GI50 [14] | -log10 GI50 [15] | -log10 GI50 [16] | -log10 GI50 [17] | -log10 GI50 [18] | -log10 GI50 [19] | -log10 GI50 [20]
CC(C)Oc1ccc(C(=O)N[C@H](CNC(=O)CN(C)C)Cc2ccc(-c3cn4cccc([C@H](C)O)c4n3)cc2)cc1Cl | 5.91 | 7.6 | < 4.48 | 7.08 | 5.74 | 6.76 | 7.41 | 6.1 | 6.98 | 5.99 | 7.32 | 7.43 | 5.1 | 7.43 | 7.62 | 5.46 | 7.3 | 7.18 | 5.72 | –
CCNCCCCNCCCCNCCCCNCCCCNC/C=C/CNCCCCNCCCCNCCCCNCCCCNCC | 4.67 | 6.57 | 6.49 | 6.63 | 6.33 | 6.79 | 6.6 | 6.2 | 6.88 | 6.33 | 6.81 | 5.78 | 6.32 | 6.6 | 6.31 | 6.02 | 6.53 | 6.38 | 6.51 | 6.28
CCNCCCNC/C=C\CNCCCNCC | 4.75 | 6.52 | 3.68 | 4.17 | 3.46 | 3.21 | 3.39 | < 4 | 4.05 | 3.74 | 5.26 | 3.15 | 3.2 | 4.03 | 3.33 | 4.24 | 4.73 | 3.61 | 4.85 | 4.26
CCn1cc(-c2ccnc3[nH]c(-c4cccc(CN(C)C)c4)cc23)c(-c2ccc(NC(=O)N(C)C)cc2)n1 | 5.47 | 5.57 | 5.1 | 5.76 | 5.06 | 5.07 | 6.3 | 5.22 | 5.52 | 5.69 | 6.53 | 5.22 | 6.1 | 5.77 | 5.52 | 5.2 | 5.71 | 5.85 | 5.18 | 5.54
COc1cc2c(Nc3ccc(NC(=O)c4ccccc4)cc3)ncnc2cc1OCCCN1CCOCC1 | < 4.3 | < 4.48 | < 4 | 5.45 | < 4.48 | 5.26 | 5.96 | 5.12 | 6.07 | 4.56 | 6.21 | 5.41 | < 4.3 | 6.14 | 5.82 | 4.29 | 5.47 | – | 5.32 | < 4.3
C[C@@H](Oc1cc(-n2cnc3ccc(CN4CCN(C)CC4)cc32)sc1C(N)=O)c1ccccc1C(F)(F)F | 7.75 | 8.16 | 5.16 | 7.15 | 6.5 | 5.21 | 8.29 | 6.14 | 7.17 | 5.33 | – | 8.72 | 5.18 | 7.49 | 8.58 | 5.07 | 7.48 | 7.06 | 5.13 | 8.02
Cn1ncc(Cl)c1-c1cc(C(=O)N[C@H](CN)Cc2ccc(F)c(F)c2)oc1Cl | 5.09 | – | – | 7.24 | 6.91 | 6.56 | > 9.77 | 5.57 | 5.41 | 4.94 | 5.99 | 6.65 | – | 6.28 | 6.09 | 7.16 | 5.45 | – | 7.72 | 7.2
O=C1NC(=O)/C(=C/c2ccc(-c3ccc(F)cc3O)o2)S1 | < 4.48 | 5.46 | 5.19 | < 4.48 | 4.8 | 5.29 | 4.91 | 4.68 | < 4.18 | 5.34 | < 4.18 | 4.78 | 5.43 | 5.23 | 4.88 | 5.41 | < 4.48 | 5.04 | 4.69 | 4.69
COc1cc2ncnc(Nc3cccc(Cl)c3)c2cc1OC [AG1478] | < 3.78 | 5.64 | 4.11 | < 3.78 | 4.05 | 6.08 | 4.57 | 7.16 | < 3.78 | < 3.78 | 3.9 | 4.82 | – | 4.76 | 4.79 | 6.17 | 4.33 | < 3.78 | 5.92 | < 3.78
CN(C)C/C=C/C(=O)Nc1cc2c(Nc3ccc(F)c(Cl)c3)ncnc2cc1O[C@H]1CCOC1 [BIBW2992] | 5.51 | 6.91 | 5.63 | 5.86 | – | 8.35 | 5.86 | 7.06 | 5.86 | 5.76 | 5.74 | 8.21 | 7.74 | 5.59 | – | 8.23 | 5.87 | 5.52 | 8.53 | 7.04
COc1cc(Nc2c(C#N)cnc3cc(OCCCN4CCN(C)CC4)c(OC)cc23)c(Cl)cc1Cl [Bosutinib] | 5.55 | 5.92 | 5.27 | 5.73 | 5.59 | 6.07 | 5.3 | 5.99 | 5.31 | 5.43 | 6.05 | 5.9 | 6.3 | 5.86 | 5.67 | 5.71 | 5.95 | 5.15 | 5.97 | –
CCN(CC)C(=S)SSC(=S)N(CC)CC [Disulfiram] | 5.85 | < 4.18 | 7.1 | 4.89 | 4.45 | 7.02 | < 4.18 | 4.97 | 6.95 | 4.97 | 5.96 | 6.56 | 4.9 | 6.65 | 6.84 | < 4.18 | 6.89 | – | < 4.18 | 6.84
COc1cccc2c1C(=O)c1c(O)c3c(c(O)c1C2=O)C[C@@](O)(C(=O)CO)C[C@@H]3O[C@H]1C[C@H](N)[C@@H](O)[C@H](C)O1 [Epirubicin] | 6.57 | 6.7 | – | 6.58 | 6.45 | 7.05 | 6.91 | 7.26 | 6.58 | 5.88 | 7.07 | 6.65 | 6.68 | 6.86 | 6.84 | 5.17 | 6.7 | 6.94 | 6.15 | 6.66
CO[C@H]1C[C@@H]2CC[C@@H](C)[C@@](O)(O2)C(=O)C(=O)N2CCCC[C@H]2C(=O)O[C@H]([C@H](C)C[C@@H]2CC[C@@H](OCCO)[C@H](OC)C2)CC(=O)[C@H](C)/C=C(\C)[C@@H](O)[C@@H](OC)C(=O)[C@H](C)C[C@H](C)/C=C/C=C/C=C/1C [Everolimus] | 4.27 | – | 4.7 | 8.12 | 6.46 | 5.1 | 7.93 | 4.87 | 5.83 | 5.06 | 6.25 | 8.35 | 6.16 | 6.36 | – | 7.52 | 6.88 | – | 8.4 | 7.59
Nc1ccn([C@@H]2O[C@H](CO)[C@@H](O)C2(F)F)c(=O)n1 [Gemcitabine] | 5.93 | 4.51 | 7.64 | 6.05 | 4.77 | 8.12 | 7.61 | 7.17 | 7.92 | 3.58 | 8.17 | – | 6.16 | 7.99 | 7.81 | 4.88 | 8.08 | 7.34 | 4.81 | –
O=C(c1ccc(Nc2nccc(-c3cc4ccccc4s3)n2)cc1)N1CCC(N2CCCC2)CC1 [IKK 16] | 5.44 | 5.77 | 5.11 | – | – | – | 5.13 | 5.39 | 5.3 | 5.4 | 5.45 | 5.24 | 6.05 | 5.8 | 5.58 | 5.27 | 5.4 | – | 5.36 | 5.55
CS(=O)(=O)CCNCc1ccc(-c2ccc3ncnc(Nc4ccc(OCc5cccc(F)c5)c(Cl)c4)c3c2)o1 [Lapatinib] | < 4.78 | 5.58 | < 4.78 | < 4.78 | < 4.78 | 6.04 | < 4.78 | – | < 4.78 | < 4.78 | < 4.78 | 5.33 | 5.86 | < 4.78 | 6.4 | 6.4 | < 4.78 | < 4.78 | 6.61 | 5.29
CC(C)C[C@@H](C=O)NC(=O)[C@H](CC(C)C)NC(=O)[C@H](CC(C)C)NC(=O)OCc1ccccc1 [MG-132] | 6.59 | – | 6.3 | 7.08 | 6.47 | 6.66 | 6.66 | 7.32 | 6.8 | 6.46 | 6.6 | 6.62 | 7.73 | 7.27 | 7.05 | 6.75 | 7.04 | 6.4 | 6.8 | 6.41
NS(=O)(=O)c1ccc(Nc2nc(OCC3CCCCC3)c3[nH]cnc3n2)cc1 [NU6102] | – | 4.34 | – | 4.58 | 4.63 | 4.28 | 4.84 | 4.8 | 4.87 | 4.87 | 5.03 | 4.58 | 5.22 | 4.9 | 4.64 | 4.79 | 4.6 | 4.85 | 4.54 | 4.91
O=C(O)C(=O)O.[NH-][C@@H]1CCCC[C@H]1[NH-].[Pt+2] [Oxaliplatin] | 4.9 | 5.95 | – | 4.53 | 5.31 | 5.44 | 5.54 | 5.75 | 4.7 | 5.09 | – | 5.46 | 5.89 | 5.6 | – | 4.73 | 5.81 | 5.52 | – | 5.19
CO[C@H]1C[C@@H]2CC[C@@H](C)[C@@](O)(O2)C(=O)C(=O)N2CCCC[C@H]2C(=O)O[C@H]([C@H](C)C[C@@H]2CC[C@@H](O)[C@H](OC)C2)CC(=O)[C@H](C)/C=C(\C)[C@@H](O)[C@@H](OC)C(=O)[C@H](C)C[C@H](C)/C=C/C=C/C=C/1C [Rapamycin] | 5.78 | 8.45 | 5.12 | 8.69 | 6.84 | 8.43 | 8.79 | 7.08 | 6.27 | 7.29 | 7.31 | 6.22 | 6.72 | 7.34 | 7.62 | 7.62 | 5.33 | – | 8.36 | 7.31
CC/C(=C(\c1ccccc1)c1ccc(OCCN(C)C)cc1)c1ccccc1 [Tamoxifen] | < 3.78 | 4.54 | 4.35 | 4.47 | < 3.78 | < 3.78 | 4.21 | 4.89 | 4.28 | 5.49 | 4.28 | < 3.78 | < 3.78 | 3.93 | 4.05 | 5.62 | < 3.78 | – | < 3.78 | 4.47
CC[C@@]1(O)C(=O)OCc2c1cc1n(c2=O)Cc2cc3c(CN(C)C)c(O)ccc3nc2-1 [Topotecan] | 5.67 | 6.55 | – | 6.73 | 5.89 | 5.95 | 7.39 | 7.58 | 6.58 | 6.35 | 8.61 | 6.03 | 6.88 | 6.65 | 7.73 | 5.6 | 7.62 | 7.26 | 6.45 | 7.07
